Data on 10 compounds can be found in ChEMBL document CHEMBL1201862, “PubChem BioAssay data set” (2004).

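Assay format: 96-well plates, 48-hour exposure. GI50: concentration for 50% inhibition of growth.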 Calls of active or inactive are those of the source. Rule as the data show it: active = GI50 up to about 1.1 µM and inactive = higher. Bounds are passed on as bounds.

Among the test systems are COLO 205; LOX IMVI; BT-549; RPMI-8226; HCC 2998; EKVX; HOP-92; TK-10; A549; SK-MEL-28; T47D; NCI-H226; CAKI-1; SK-MEL-5; IGROV-1; HOP-62; K562; HCT-15; NCI-H522; UO-31.
Holding throughout (experiment): growth of human tumour cells (NCI), 48 h

`CC12OC(=O)[C@@]3(O)CCC4C(C[C@H]5O[C@]56CC=CC(=O)[C@]46C)C45OC[C@H]6C(=O)O[C@@H]1C[C@@]6(C)[C@H](C4=O)C23O5` (some centres undefined): the GI50 in the test with COLO 205 is 0.601 µM (active); with LOX IMVI, 1.63 µM (inactive); with BT-549 it was 0.818 µM (active); with RPMI-8226, 0.308 µM (active); with HCC 2998 it was 3.12 µM (inactive); with EKVX, 3.28 µM (inactive). In addition, the GI50 is 2.11 µM (inactive) with HOP-92; 1 µM (active) in the test on TK-10; 3.83 µM (inactive) in the test on A549; 0.394 µM (active) in the test on SK-MEL-28; 1.36 µM (inactive) in the test with T47D; 2.7 µM (inactive) in the test on NCI-H226. For the same compound, the GI50 in the test on CAKI-1 was 2.64 µM (inactive); with SK-MEL-5, 1.53 µM (inactive); with IGROV-1, 1.24 µM (inactive); in the test with HOP-62, 2.57 µM (inactive); in the test with K562 it was 0.53 µM (active); in the test on HCT-15, 0.977 µM. Moreover, in the test with NCI-H522, the GI50 is 0.269 µM (active).

For `CCOC(=O)c1nc2cc(C(F)(F)F)ccc2nc1Nc1ccc(Cl)c(Cl)c1`, the GI50 in the test with COLO 205 was > 100 µM (inactive); with LOX IMVI, > 100 µM (inactive); in the test with BT-549 it was 86.3 µM (inactive); with RPMI-8226, 33.4 µM (inactive); with HCC 2998 it was 69.3 µM (inactive); with EKVX, > 100 µM (inactive). Moreover, the GI50 in the test with HOP-92 is 24.2 µM (inactive); with TK-10, > 100 µM (inactive); in the test with A549, 84.3 µM (inactive); in the test on SK-MEL-28, > 100 µM (inactive); with UO-31, > 100 µM (inactive); in the test with T47D, > 100 µM (inactive). Further, the GI50 in the test on NCI-H226 was > 100 µM (inactive); with CAKI-1, > 100 µM (inactive); in the test with SK-MEL-5 it was > 100 µM (inactive); in the test with IGROV-1, > 100 µM (inactive); in the test on HOP-62, 76.6 µM (inactive); with HCT-15 it was more than 100 µM. Also, the GI50 in the test with NCI-H522 was > 100 µM (inactive).

As to `C#C[C@]1(O)CC[C@H]2[C@@H]3CCC4=C/C(=N/NC(=O)c5cccc6c(=O)c7ccccc7[nH]c56)CCC4[C@H]3CC[C@@]21C` (some centres undefined), the GI50 was 70 µM (inactive) in the test on COLO 205; 58.1 µM (inactive) in the test with LOX IMVI; 19.2 µM (inactive) in the test with BT-549; 28.8 µM (inactive) in the test with RPMI-8226; 47.9 µM (inactive) in the test with HCC 2998; 77.8 µM (inactive) in the test on EKVX. Besides, the GI50 in the test on HOP-92 is > 100 µM (inactive); in the test on TK-10, 57.5 µM (inactive); with A549, 60.3 µM (inactive); in the test on UO-31 it was 20.5 µM (inactive); in the test on T47D, 30.8 µM (inactive); in the test on NCI-H226, 73.8 µM (inactive). Further, the GI50 with CAKI-1 is > 100 µM (inactive); in the test on SK-MEL-5 it was 24.4 µM (inactive); in the test on IGROV-1, 82.2 µM (inactive); with HOP-62 it was > 100 µM (inactive); with K562, 73.5 µM (inactive); in the test on HCT-15 it was 73.8 µM. Besides, the GI50 with NCI-H522 is 15.8 µM (inactive).

Turning to `O=[N+]([O-])c1cc(C(F)(F)F)ccc1S(=O)(=O)N[C@@H]1CCCC[C@H]1NS(=O)(=O)c1ccc(C(F)(F)F)cc1[N+](=O)[O-]`, the GI50 in the test on COLO 205 was 2.78 µM (inactive); in the test on LOX IMVI, 1.56 µM (inactive); in the test on BT-549, 2.23 µM (inactive); with HCC 2998 it was 4.28 µM (inactive); with EKVX, 6.5 µM (inactive); in the test on HOP-92, 1.98 µM (inactive). The GI50 with TK-10 was 11 µM (inactive); in the test with A549, 4.16 µM (inactive); in the test with SK-MEL-28, 5.55 µM (inactive); in the test with UO-31 it was 3.56 µM (inactive); in the test with T47D it was 3.13 µM (inactive); with NCI-H226 it was 7.52 µM (inactive). Besides, the GI50 in the test with CAKI-1 was 2.65 µM (inactive); in the test on SK-MEL-5, 3.58 µM (inactive); in the test on IGROV-1, 2.31 µM (inactive); with HOP-62, 7.1 µM (inactive); in the test with HCT-15, 2.69 µM; with NCI-H522, 2.45 µM (inactive).

Turning to `COc1ccccc1C1(c2c(OC)c(=O)c2=O)SCCCS1`, the GI50 was > 100 µM (inactive) in the test on COLO 205; 60.3 µM (inactive) in the test on LOX IMVI; 31.6 µM (inactive) in the test with BT-549; 32 µM (inactive) in the test on RPMI-8226; > 100 µM (inactive) in the test with HCC 2998; 75.2 µM (inactive) in the test with EKVX. For the same compound, the GI50 with HOP-92 is 19.2 µM (inactive); in the test with TK-10, > 100 µM (inactive); in the test on A549, 74.8 µM (inactive); in the test with SK-MEL-28, > 100 µM (inactive); in the test with UO-31, > 100 µM (inactive); in the test on T47D it was 73.8 µM (inactive). Besides, the GI50 in the test on NCI-H226 was 85.7 µM (inactive); in the test on CAKI-1 it was > 100 µM (inactive); in the test on SK-MEL-5, > 100 µM (inactive); with IGROV-1 it was 47.2 µM (inactive); in the test with HOP-62, > 100 µM (inactive); in the test with K562 it was > 100 µM (inactive). The GI50 in the test on HCT-15 is 61 µM; in the test with NCI-H522, 27.4 µM (inactive).

With `Cn1c(-c2ccc[se]2)ccc1-c1ccc(CO)[se]1`, the GI50 in the test with COLO 205 was 0.367 µM (active); in the test on LOX IMVI it was 21.8 µM (inactive); with BT-549, 27.7 µM (inactive); in the test with RPMI-8226, 1.28 µM (inactive); with HCC 2998, 0.792 µM (active); in the test with EKVX, 32.7 µM (inactive). Also, the GI50 in the test with HOP-92 is 7.41 µM (inactive); with TK-10, 0.0129 µM (active); in the test on A549, 52.6 µM (inactive); in the test with SK-MEL-28, 52.8 µM (inactive); in the test with UO-31 it was 36.3 µM (inactive); in the test on T47D, 0.0405 µM (active). The GI50 with NCI-H226 was 0.302 µM (active); in the test on CAKI-1 it was < 0.01 µM (active); in the test with SK-MEL-5, 24.9 µM (inactive); in the test with IGROV-1 it was < 0.01 µM (active); in the test with K562, 0.159 µM (active); in the test on HCT-15, 18.3 µM. Further, the GI50 with NCI-H522 is 27.9 µM (inactive).

For the compound `COc1ccc(N[C@H]([C@@H](c2ccccc2)[S+]([O-])c2ccc(C)cc2)C(F)(F)F)cc1` (some centres undefined), the GI50 with COLO 205 is 37.2 µM (inactive); with LOX IMVI, 53.1 µM (inactive); in the test with BT-549, 38.6 µM (inactive); in the test on HCC 2998, > 100 µM (inactive); in the test with EKVX, 44 µM (inactive); with HOP-92 it was 34 µM (inactive). For the same compound, the GI50 in the test on TK-10 is 74.1 µM (inactive); in the test on A549, 32.7 µM (inactive); in the test with SK-MEL-28, > 100 µM (inactive); in the test with UO-31, 59.8 µM (inactive); in the test on T47D it was > 100 µM (inactive); in the test with NCI-H226, 48.4 µM (inactive). Further, the GI50 with CAKI-1 was 46.7 µM (inactive); in the test on SK-MEL-5, 35.8 µM (inactive); in the test on IGROV-1 it was 48.8 µM (inactive); with K562, 28.4 µM (inactive); in the test on HCT-15, 30 µM; in the test on NCI-H522, 56.5 µM (inactive).

For the compound `O=C(/C=C/c1ccc(OCc2cccc(Cl)c2)cc1)NO`, the GI50 is 14 µM (inactive) in the test on COLO 205; 6.28 µM (inactive) in the test on LOX IMVI; 24.8 µM (inactive) in the test on BT-549; 7.48 µM (inactive) with RPMI-8226; 14.2 µM (inactive) in the test with HCC 2998; 23.9 µM (inactive) in the test on EKVX. Besides, the GI50 in the test on HOP-92 was 14.1 µM (inactive); in the test on TK-10, 20.9 µM (inactive); in the test with A549 it was 18.9 µM (inactive); in the test with SK-MEL-28 it was 26.2 µM (inactive); with UO-31, 4.78 µM (inactive); with T47D, 7.52 µM (inactive). The GI50 in the test with NCI-H226 was 14 µM (inactive); with CAKI-1 it was 13.5 µM (inactive); with SK-MEL-5, 16.4 µM (inactive); with IGROV-1, 11.9 µM (inactive); in the test on HOP-62, 18.2 µM (inactive); in the test with K562, 16.6 µM (inactive). Also, the figures for the GI50 with HCT-15 and in the test on NCI-H522 were 5.05 µM and 7.41 µM (inactive), respectively.

For the compound `Cc1ccc([C@@H]2[C@@H](C(=O)c3ccccn3)[C@H](c3ccc(C)cc3)C[C@](O)(c3ccccn3)[C@H]2C(=O)c2ccccn2)cc1`, the GI50 was 5.24 µM (inactive) in the test on COLO 205; 2.84 µM (inactive) in the test on LOX IMVI; > 27.4 µM (inactive) with BT-549; 7.35 µM (inactive) with HCC 2998; 0.728 µM (active) in the test on EKVX; 4.61 µM (inactive) with HOP-92. Moreover, the GI50 is 6.05 µM (inactive) in the test on TK-10; 2.77 µM (inactive) in the test on A549; 6.11 µM (inactive) in the test with SK-MEL-28; 2.32 µM (inactive) in the test with UO-31; 7.73 µM (inactive) with T47D; 4.1 µM (inactive) in the test on NCI-H226. The GI50 with CAKI-1 is 3.95 µM (inactive); in the test on SK-MEL-5 it was 3.71 µM (inactive); with IGROV-1 it was 4.53 µM (inactive); with HOP-62, 5.73 µM (inactive); with HCT-15, 1.77 µM; in the test on NCI-H522, 32.8 µM (inactive).

Regarding `O=C(/C=C/C=C/c1ccccc1)CCc1ccccc1`, the GI50 was > 100 µM (inactive) in the test with COLO 205; 79.4 µM (inactive) with LOX IMVI; > 100 µM (inactive) with BT-549; > 10 µM (inactive) with RPMI-8226; > 100 µM (inactive) with HCC 2998; > 100 µM (inactive) with EKVX. Further, the GI50 in the test with HOP-92 was > 100 µM (inactive); in the test on TK-10 it was > 100 µM (inactive); with A549, > 100 µM (inactive); in the test on SK-MEL-28, > 10 µM (inactive); with UO-31, 90.6 µM (inactive); with T47D, 53.3 µM (inactive). For the same compound, the GI50 in the test on NCI-H226 was > 100 µM (inactive); in the test with CAKI-1, > 100 µM (inactive); in the test on SK-MEL-5 it was > 100 µM (inactive); with IGROV-1, > 100 µM (inactive); in the test with HOP-62, > 100 µM (inactive); in the test with HCT-15 it was 94.4 µM. Besides, in the test on NCI-H522, the GI50 is 50.2 µM (inactive).
